What was measured:
[1] = DRUGMATRIX: Serotonin (5-Hydroxytryptamine) 5-HT3 radioligand binding (ligand: [3H] GR-65630); assay type: cell membranes, Membrane; settings: hek293; Not Active = under 50% inhibition at 10 µM
[2] = biological target: 5-hydroxytryptamine receptor 4 (Cavia porcellus, UniProt O70528); assay type: cell membranes, Dunkin-Hartley, Striatum, Membrane; note: in other assays of this panel Not Active means under 50% inhibition at 10 µM
[3] = biological target: Substance-P receptor (Homo sapiens, UniProt P25103); assay type: cell membranes, Membrane; settings: cho; note: in other assays of this panel Not Active means under 50% inhibition at 10 µM
[4] = biological target: Cannabinoid receptor 1 (Homo sapiens, UniProt P21554); assay type: cell membranes, Chem-1, Membrane; settings: chem-1; note: in other assays of this panel Not Active means under 50% inhibition at 10 µM
[5] = biological target: Mitogen-activated protein kinase 14 (Homo sapiens, UniProt Q16539); design: species or system Escherichia coli;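 note: inhibition of p38alpha enzyme activity in a biochemical kinase assay, with myelin basic protein serving as substrate; in other assays of this panel Not Active means under 50% inhibition at 10 µM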
[6] = biological target: T1, Estrogen receptor (Homo sapiens, UniProt P03372); settings: sf9; note: in other assays of this panel Not Active means under 50% inhibition at 10 µM
T1 sequence (P03372 whole entry): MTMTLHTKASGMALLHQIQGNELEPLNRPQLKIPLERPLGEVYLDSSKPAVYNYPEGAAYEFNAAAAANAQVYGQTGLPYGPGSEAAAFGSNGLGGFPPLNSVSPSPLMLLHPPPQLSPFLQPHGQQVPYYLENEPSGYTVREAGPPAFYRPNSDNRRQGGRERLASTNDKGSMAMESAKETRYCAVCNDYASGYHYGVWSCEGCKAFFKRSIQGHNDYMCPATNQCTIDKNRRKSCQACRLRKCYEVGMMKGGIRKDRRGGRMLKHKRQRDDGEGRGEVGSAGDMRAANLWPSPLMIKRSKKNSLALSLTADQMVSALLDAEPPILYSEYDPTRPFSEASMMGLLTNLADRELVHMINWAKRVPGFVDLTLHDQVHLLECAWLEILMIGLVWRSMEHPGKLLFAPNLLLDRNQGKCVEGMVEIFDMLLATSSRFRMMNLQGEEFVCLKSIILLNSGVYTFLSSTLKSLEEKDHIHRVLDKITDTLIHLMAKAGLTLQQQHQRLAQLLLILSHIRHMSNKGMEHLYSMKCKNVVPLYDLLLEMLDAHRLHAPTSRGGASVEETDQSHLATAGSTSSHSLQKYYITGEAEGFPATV

Sequence of 5-hydroxytryptamine receptor 4 (O70528 whole entry): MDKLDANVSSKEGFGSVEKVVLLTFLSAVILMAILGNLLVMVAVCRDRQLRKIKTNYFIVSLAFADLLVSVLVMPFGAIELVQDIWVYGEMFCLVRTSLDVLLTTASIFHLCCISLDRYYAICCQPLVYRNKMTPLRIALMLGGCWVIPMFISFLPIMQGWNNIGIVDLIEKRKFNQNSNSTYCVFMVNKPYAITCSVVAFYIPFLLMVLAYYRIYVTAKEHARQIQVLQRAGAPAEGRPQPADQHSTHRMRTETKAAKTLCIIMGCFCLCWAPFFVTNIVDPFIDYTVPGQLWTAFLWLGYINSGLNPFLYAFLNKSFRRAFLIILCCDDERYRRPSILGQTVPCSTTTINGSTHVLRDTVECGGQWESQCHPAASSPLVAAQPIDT
Sequence of Cannabinoid receptor 1 (P21554 whole entry): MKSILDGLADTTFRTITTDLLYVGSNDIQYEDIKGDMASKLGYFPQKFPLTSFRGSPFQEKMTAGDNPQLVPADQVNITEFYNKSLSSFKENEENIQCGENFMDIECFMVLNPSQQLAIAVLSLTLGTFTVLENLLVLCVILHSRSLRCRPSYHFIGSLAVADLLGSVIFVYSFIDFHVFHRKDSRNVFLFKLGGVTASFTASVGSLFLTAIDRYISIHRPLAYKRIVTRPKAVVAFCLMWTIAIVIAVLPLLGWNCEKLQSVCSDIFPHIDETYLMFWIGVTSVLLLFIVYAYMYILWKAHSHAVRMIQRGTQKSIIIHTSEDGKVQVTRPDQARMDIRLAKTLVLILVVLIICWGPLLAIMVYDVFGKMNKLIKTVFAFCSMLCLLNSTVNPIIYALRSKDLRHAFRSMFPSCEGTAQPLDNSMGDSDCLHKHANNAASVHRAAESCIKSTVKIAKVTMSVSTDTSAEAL
Sequence of Mitogen-activated protein kinase 14 (Q16539 whole entry): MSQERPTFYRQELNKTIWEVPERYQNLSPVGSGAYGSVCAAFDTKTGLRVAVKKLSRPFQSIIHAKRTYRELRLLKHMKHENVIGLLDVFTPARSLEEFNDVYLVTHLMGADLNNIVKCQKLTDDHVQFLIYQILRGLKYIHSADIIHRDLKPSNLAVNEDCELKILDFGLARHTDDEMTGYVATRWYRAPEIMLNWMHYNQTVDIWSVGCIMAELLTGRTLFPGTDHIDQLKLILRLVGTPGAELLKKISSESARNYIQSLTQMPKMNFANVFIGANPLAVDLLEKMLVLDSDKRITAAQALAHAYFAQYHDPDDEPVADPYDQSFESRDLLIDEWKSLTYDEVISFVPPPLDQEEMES
Sequence of Substance-P receptor (P25103 whole entry): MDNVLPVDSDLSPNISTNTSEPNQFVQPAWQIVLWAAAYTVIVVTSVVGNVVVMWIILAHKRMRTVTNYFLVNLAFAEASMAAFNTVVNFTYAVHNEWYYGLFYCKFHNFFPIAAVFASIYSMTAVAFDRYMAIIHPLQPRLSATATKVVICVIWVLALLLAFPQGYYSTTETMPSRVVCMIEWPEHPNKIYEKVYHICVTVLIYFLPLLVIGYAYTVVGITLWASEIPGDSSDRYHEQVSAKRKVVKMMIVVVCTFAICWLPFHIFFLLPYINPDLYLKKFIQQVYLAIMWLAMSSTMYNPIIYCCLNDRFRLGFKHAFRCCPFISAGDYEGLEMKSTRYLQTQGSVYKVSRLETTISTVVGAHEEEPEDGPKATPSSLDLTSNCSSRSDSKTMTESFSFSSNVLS

O=C1c2ccccc2C(=O)C1c1ccccc1 [PHENINDIONE]
Not Active: IC50 [1] | Ki [1] | IC50 [2] | IC50 [3] | IC50 [4] | IC50 [5] | IC50 [6]

Clc1cc(Cl)c(OCC#CI)cc1Cl [HALOPROGIN]
Not Active: IC50 [1] | Ki [1] | IC50 [2] | IC50 [3] | IC50 [4] | IC50 [5] | IC50 [6]

C[C@H]1C[C@H]2[C@@H]3CCC4=CC(=O)C=C[C@]4(C)[C@@]3(F)[C@@H](O)C[C@]2(C)[C@@]1(O)C(=O)CO [BETAMETHASONE]
Not Active: IC50 [1] | Ki [1] | IC50 [2] | IC50 [3] | IC50 [4] | IC50 [5]

COc1ccc(Cl)cc1C(=O)NCCc1ccc(S(=O)(=O)NC(=O)NC2CCCCC2)cc1 [GLYBURIDE]
Not Active: IC50 [1] | Ki [1] | IC50 [2] | IC50 [3] | IC50 [4] | IC50 [5]

CC1(COc2ccc(CC3SC(=O)NC3=O)cc2)CCCCC1 (centres undefined) [CIGLITAZONE]
Not Active: IC50 [1] | Ki [1] | IC50 [2] | IC50 [3] | IC50 [4] | IC50 [5] | IC50 [6]

Cc1ccnc2c1NC(=O)c1cccnc1N2C1CC1 [NEVIRAPINE]
Not Active: IC50 [1] | Ki [1] | IC50 [2] | IC50 [3] | IC50 [4] | IC50 [5]

CNC[C@H](O)c1ccc(O)c(O)c1 [EPINEPHRINE]
Not Active: IC50 [2] | IC50 [3] | IC50 [4] | IC50 [5] | IC50 [6]

CN(Cc1cc(Br)cc(Br)c1N)C1CCCCC1 [BROMHEXINE]
Not Active: IC50 [1] | Ki [1] | IC50 [2] | IC50 [3] | IC50 [4] | IC50 [5] | IC50 [6]

COPPER(II) OXIDE
Not Active: IC50 [1] | Ki [1] | IC50 [2] | Ki [2] | IC50 [3] | Ki [3] | IC50 [4] | Ki [4] | IC50 [5] | Ki [5] | IC50 [6] | Ki [6]

CCN1C[C@]2(COC)[C@H](O)C[C@H](OC)[C@@]34[C@@H]5C[C@@]6(O)[C@H](OC(=O)c7ccccc7)[C@@H]5[C@@](OC(C)=O)([C@@H]([C@H](OC)[C@H]23)[C@@H]14)[C@@H](O)[C@@H]6OC [ACONITINE]
Not Active: IC50 [1] | Ki [1] | IC50 [2] | IC50 [3] | IC50 [4] | IC50 [5] | IC50 [6]

COc1ccc(C[C@H](N)C(=O)N[C@H]2[C@@H](O)[C@H](n3cnc4c(N(C)C)ncnc43)O[C@@H]2CO)cc1 [PUROMYCIN]
Not Active: IC50 [1] | Ki [1] | IC50 [2] | IC50 [3] | IC50 [4] | IC50 [5] | IC50 [6]

OC[C@H]1OC2C3[C@@H](CO)OC(O[C@H]4[C@H](O)[C@@H](O)[C@@H](O[C@H]5[C@H](O)[C@@H](O)[C@@H](O[C@H]6[C@H](O)[C@@H](O)[C@@H](O[C@H]7[C@H](O)[C@@H](O)[C@@H](O[C@H]8[C@H](O)[C@@H](O)[C@@H](O[C@H]9[C@H](O)[C@@H](O)C(OC1[C@H](O)[C@H]2O)O[C@@H]9CO)O[C@@H]8CO)O[C@@H]7CO)O[C@@H]6CO)O[C@@H]5CO)O[C@@H]4CO)[C@H](O)[C@H]3O
Not Active: IC50 [1] | Ki [1] | IC50 [2] | IC50 [3] | IC50 [4] | IC50 [5] | IC50 [6]

NC(=O)CN1CCCC1=O
Not Active: IC50 [1] | Ki [1] | IC50 [2] | IC50 [3] | IC50 [4] | IC50 [5]

CC(C)(c1ccc(O)cc1)c1ccc(O)cc1 [BISPHENOL A]
Not Active: IC50 [1] | Ki [1] | IC50 [2] | IC50 [3] | IC50 [4] | IC50 [5]

C[C@]12CC[C@@H](O)C[C@@H]1CC[C@@H]1[C@@H]2CC[C@]2(C)C(=O)CC[C@@H]12 [ANDROSTERONE]
Not Active: IC50 [1] | Ki [1] | IC50 [2] | IC50 [3] | IC50 [4] | IC50 [5]

Nc1ccc(Cc2ccc(N)cc2)cc1
Not Active: IC50 [1] | Ki [1] | IC50 [2] | IC50 [3] | IC50 [4] | IC50 [5]

CCN1CCN(c2cc3c(cc2F)c(=O)c(C(=O)O)cn3C2CC2)CC1 [ENROFLOXACIN]
Not Active: IC50 [1] | Ki [1] | IC50 [2] | IC50 [3] | IC50 [4] | IC50 [5]

Nc1ccc(C(=O)O)c(O)c1 [AMINOSALICYLIC ACID]
Not Active: IC50 [1] | Ki [1] | IC50 [2] | IC50 [3] | IC50 [4] | IC50 [5]

C=CCO [ALLYL ALCOHOL]
Not Active: IC50 [1] | Ki [1] | IC50 [2] | IC50 [3] | IC50 [4] | IC50 [5]

NCC(CC(=O)O)c1ccc(Cl)cc1 (centres undefined) [BACLOFEN]
Not Active: IC50 [1] | Ki [1] | IC50 [2] | IC50 [3] | IC50 [4] | IC50 [5]

OC[C@H]1O[C@@H]2O[C@H]3[C@H](O)[C@@H](O)[C@@H](O[C@H]4[C@H](O)[C@@H](O)[C@@H](O[C@H]5[C@H](O)[C@@H](O)[C@@H](O[C@H]6[C@H](O)[C@@H](O)[C@@H](O[C@H]7[C@H](O)[C@@H](O)[C@@H](O[C@H]8[C@H](O)[C@@H](O)[C@@H](O[C@H]1[C@H](O)[C@H]2O)O[C@@H]8CO)O[C@@H]7CO)O[C@@H]6CO)O[C@@H]5CO)O[C@@H]4CO)O[C@@H]3CO [BETADEX]
Not Active: IC50 [1] | Ki [1] | IC50 [2] | IC50 [3] | IC50 [4] | IC50 [5]

O=C(NCCN1CCOCC1)c1ccc(Cl)cc1 [MOCLOBEMIDE]
Not Active: IC50 [1] | Ki [1] | IC50 [2] | IC50 [3] | IC50 [4] | IC50 [5]

CCN(CCO)CCCC(C)Nc1ccnc2cc(Cl)ccc12 (centres undefined) [HYDROXYCHLOROQUINE]
Not Active: IC50 [1] | Ki [1] | IC50 [2] | IC50 [3] | IC50 [4] | IC50 [5]

CC(C)(C#N)c1cc(Cn2cncn2)cc(C(C)(C)C#N)c1 [ANASTROZOLE]
Not Active: IC50 [1] | Ki [1] | IC50 [2] | IC50 [3] | IC50 [4] | IC50 [5]

CC[C@H]1OC(=O)[C@H](C)[C@@H](O[C@H]2C[C@@](C)(OC)[C@@H](O)[C@H](C)O2)[C@H](C)[C@@H](O[C@@H]2O[C@H](C)C[C@H](N(C)C)[C@H]2O)[C@](C)(O)C[C@@H](C)C(=O)[C@H](C)[C@@H](O)[C@]1(C)O [ERYTHROMYCIN]
Not Active: IC50 [1] | Ki [1] | IC50 [2] | IC50 [3] | IC50 [4] | IC50 [5]

COc1cc([C@@H]2c3cc4c(cc3[C@H](O)[C@H]3COC(=O)[C@H]23)OCO4)cc(OC)c1OC [PODOFILOX]
Not Active: IC50 [1] | Ki [1] | IC50 [2] | IC50 [3] | IC50 [4] | IC50 [5]

COC(=O)Nc1nc2ccc(Sc3ccccc3)cc2[nH]1 [FENBENDAZOLE]
Not Active: IC50 [1] | Ki [1] | IC50 [2] | IC50 [3] | IC50 [4]
3.19 µM: IC50 ([5]; read-out: IC50)

C#C[C@]1(O)CC[C@H]2[C@@H]3CCC4=CC(=O)CC[C@@H]4[C@H]3CC[C@@]21C [NORETHINDRONE]
Not Active: IC50 [1] | Ki [1] | IC50 [2] | IC50 [3] | IC50 [4] | IC50 [5]

CC(CN1c2ccccc2Sc2ccccc21)N(C)C (centres undefined) [PROMETHAZINE]
Not Active: IC50 [1] | Ki [1] | IC50 [2] | IC50 [3] | IC50 [4] | IC50 [5]

CCCCCCNC(=O)n1cc(F)c(=O)[nH]c1=O [CARMOFUR]
Not Active: IC50 [1] | Ki [1] | IC50 [2] | IC50 [3] | IC50 [4] | IC50 [5]

Oc1ccccc1 [PHENOL]
Not Active: IC50 [1] | Ki [1] | IC50 [2] | IC50 [3] | IC50 [4] | IC50 [5]

C[N+](C)(C)CCOC(N)=O.[Cl-] [CARBACHOL]
Not Active: IC50 [1] | Ki [1] | IC50 [2] | IC50 [3] | IC50 [4] | IC50 [5]
